According to patent publication US20240417687A1, “THYMIC CELLS AND METHODS OF MAKING” (Thymmune Therapeutics, Inc., priority 2021, published 2024):

System: iPSCs
Assay: Optimizing 3D differentiation of iPSCs to definitive endoderm (Experiments 21, 22, 23)
Format: cell-based, human
Procedure: In this experiment, the effect of adding PI-103 to Experiment 21/22 Medium B was tested. The effect of transitioning to 2D culture at the AFE stage was also tested. Differentiation of iPSCs into DE requires proper timing for introducing small molecules and growth factors. On Day 1-2, Experiment 21/22 Media A comprising DMEM-F12 and factors/small molecules namely Activin A (100 ng/mL), CHIR99021 2 μM, ITS (1:1000), KSR (0.05%), Pen strep (100×), PI-103 (25 nM) and NEAA (100×) was added. On day 3-5, Experiment 21/22 Media B comprising DMEM-F12 and factors/small molecules namely Activin A (100 ng/mL), LDN193189 (200 nM), PI-103 (25 nM), Insulin-Transferrin-Selenium (ITS-G) (1:1000), KSR (0.05%), Pen strep (100×) and NEAA (100×) was added. In Experiment 22, PI-103 (25 nM) was excluded. The effect of transitioning from 3D to 2D culture at VPE stage was tested. The impact of CHIR99021 addition to Experiment 23 Medium B was tested. Differentiation of iPSCs into DE requires proper timing for introducing small molecules and growth factors. On day 1-2, cells were cultured in Experiment 23 Media A comprising DMEM-F12 and small molecules/factors namely Activin A (100 ng/mL), CHIR99021 2 μM, ITS (1:1000), KSR (0.05%), Pen strep (100×), PI-103 (25 nM), and NEAA (100×). On day 3-4, Experiment 23 Media B containing DMEM-F12 and small molecules/factors namely Activin A (100 ng/mL), CHIRR9901 (2 μM), LDN193189 (200 nM), PI-103 (25 nM), Insulin-Transferrin-Selenium (ITS-G) (1:1000), KSR (0.05%), Pen strep (100×), and NEAA (100×). On day 5, Experiment 23 Media B containing DMEM-F12 and small molecules/factors namely Activin A (100 ng/mL), LDN193189 (200 nM), PI-103 (25 nM), Insulin-Transferrin-Selenium (ITS-G) (1:1000), KSR (0.05%), Pen strep (100×), NEAA (100×) was added. Experiment 21 and Experiment 23 described in Example 11 were designed to identify optimal conditions for 3D differentiation to DE. […] Sox17/FoxA2 double positive were higher in Experiment 23, whereas there were more Sox17/FoxA2 negative cells in Experiment 21 and Experiment 22.

Row | Compound | differentiation (2 μM added to Experiment 23 Medium B, day 3-4) | differentiation efficiency to DE (Experiment 23 with Wnt activator versus Experiment 21 and 22 without) | DE differentiation (PI-103 (25 nM) added to Experiment 21/22 Medium B, day 3-5, excluded in Experiment 22)
1 | Cc1c[nH]c(-c2cnc(NCCNc3ccc(C#N)cn3)nc2-c2ccc(Cl)cc2Cl)n1 [CHIRR99, CHIR99021] | enhance differentiation | increased differentiation efficiency to DE | –
2 | Oc1cccc(-c2nc(N3CCOCC3)c3oc4ncccc4c3n2)c1 [PI-103] | – | – | enhanced DE differentiation
